# Assay results reported in patent publication US8455475B2 (Gruenenthal GmbH, priority 2009, dated 2013).
# Molecular target: T1, rat B1R (bradykinin receptor 1) (Rattus norvegicus, UniProt P97583)
# T1 construct: expressed in transfected cells; host or cells: CHO K1 cells
# T1 sequence (P97583 1-337): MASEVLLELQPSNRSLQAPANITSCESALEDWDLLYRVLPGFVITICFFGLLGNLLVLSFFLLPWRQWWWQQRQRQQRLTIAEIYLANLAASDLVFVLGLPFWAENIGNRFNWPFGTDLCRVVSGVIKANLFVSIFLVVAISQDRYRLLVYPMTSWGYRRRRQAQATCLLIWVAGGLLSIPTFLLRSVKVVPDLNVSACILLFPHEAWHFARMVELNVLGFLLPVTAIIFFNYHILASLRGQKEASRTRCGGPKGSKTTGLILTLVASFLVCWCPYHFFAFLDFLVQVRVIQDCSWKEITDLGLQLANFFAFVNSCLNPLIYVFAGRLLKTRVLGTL
# Assay: FLIPR Ca2+ assay (Fluo-4) on CHO K1 cells stably transfected with the B1R gene of the rat (rB1R cells): % inhibition at 10 μM / IC50, agonist Des-Arg9-bradykinin
# Format: cell-based
# Conditions: CHO-K1, rat B1R
# Summary of the method: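 Cells were Fluo-4-loaded, then test compound (10 μM, or a concentration series for IC50) was preincubated 10–20 min before agonist challenge at EC80: Lys-Des-Arg9-bradykinin for hB1R, Des-Arg9-bradykinin for rB1R. Peak Ca2+ fluorescence (ex 488/em 540 nm) gave % inhibition versus maximal achievable inhibition.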
row,Compound,inhibition at 10 µM [%]
1,"COc1ccc(CN2CCC3(CC2)CCN(C(=O)c2ccc4c(c2)C(NC(=O)c2cc(Cl)ccc2F)CC4)CC3)cc1F (centres unmarked) [IND_CC-630, 5-Chloro-2-fluoro-N-[6-[9-[(3-fluoro-4-methoxy-phenyl)-methyl]-3,9-diazaspiro[5.5]undecane-3-carbonyl]-2,3-dihydro-1H-inden-1-yl]-benzamide]",53
2,"Cc1noc(C)c1CN1CCC2(CC1)CCN(C(=O)c1ccc3c(c1)C(NC(=O)c1cc(C(F)(F)F)ccc1Cl)CC3)C2 (centres unmarked) [IND_CC-657, 2-Chloro-N-[6-[8-[(3,5-dimethyl-isoxazol-4-yl)-methyl]-2,8-diazaspiro[4.5]-decane-2-carbonyl]-2,3-dihydro-1H-inden-1-yl]-5-(trifluoromethyl)-benzamide]",66
3,"O=C(NC1CCc2ccc(C(=O)N3CCC4(CCN(S(=O)(=O)c5ccc(F)cc5F)CC4)C3)cc21)c1ccccc1Cl (centres unmarked) [IND_CC-500, 2-Chloro-N-[6-[8-[(2,4-difluoro-phenyl)sulfonyl]-2,8-diazaspiro[4.5]decane-2-carbonyl]-2,3-dihydro-1H-inden-1-yl]-benzamide]",51
4,"O=C(NC1CCc2ccc(C(=O)N3CCC4(CC3)CCN(C(=O)c3ccc(F)cc3Cl)CC4)cc21)c1ccccc1Cl (centres unmarked) [IND_CC-599, 2-Chloro-N-[6-[9-(2-chloro-4-fluoro-benzoyl)-3,9-diazaspiro[5.5]undecane-3-carbonyl]-2,3-dihydro-1H-inden-1-yl]-benzamide]",96
5,"N#Cc1cccc(NC(=O)N2CCC3(CC2)CCN(C(=O)c2ccc4c(c2)C(NC(=O)c2ccccc2Cl)CC4)C3)c1 (centres unmarked) [IND_CC-503, 2-[3-[(2-Chloro-benzoyl)amino]-2,3-dihydro-1H-indene-5-carbonyl]-N-(3-cyano-phenyl)-2,8-diazaspiro[4.5]decane-8-carboxylic acid amide]",66
6,"Cn1cccc1CN1CCC2(CC1)CCN(C(=O)c1ccc3c(c1)C(N(C(=O)c1ccccc1Cl)C1CC1)CC3)C2 (centres unmarked) [IND_CC-519, 2-Chloro-N-cyclopropyl-N-[6-[8-[(1-methyl-1H-pyrrol-2-yl)-methyl]-2,8-diazaspiro[4.5]decane-2-carbonyl]-2,3-dihydro-1H-inden-1-yl]-benzamide]",53
7,"O=C(NC1CCc2ccc(C(=O)N3CCC4(CC3)CCN(C(=O)C3CC3)CC4)cc21)c1ccccc1Cl (centres unmarked) [IND_CC-597, 2-Chloro-N-[6-[9-(cyclopropanecarbonyl)-3,9-diazaspiro[5.5]undecane-3-carbonyl]-2,3-dihydro-1H-inden-1-yl]-benzamide]",101
8,"CC1(C)CC(NS(=O)(=O)c2ccc(Cl)cc2Cl)c2cc(C(=O)N3CCC4(CC3)CCN(c3ccncc3)CC4)ccc21 (centres unmarked) [IND_CC-335, 2,4-Dichloro-N-[3,3-dimethyl-6-(3-pyridin-4-yl-3,9-diazaspiro[5.5]undecane-9-carbonyl)-1,2-dihydro-inden-1-yl]-benzenesulfonic acid amide]",102
9,"O=C(NC1CCc2ccc(C(=O)N3CCC4(CCN(Cc5ccncc5)CC4)CC3)cc21)c1cc(C(F)(F)F)ccc1Cl (centres unmarked) [IND_CC-641, 2-Chloro-N-[6-[9-(pyridin-4-yl-methyl)-3,9-diazaspiro[5.5]undecane-3-carbonyl]-2,3-dihydro-1H-inden-1-yl]-5-(trifluoromethyl)-benzamide]",74

# More lines, now with the values ahead:
row,inhibition at 10 µM [%],Compound
1,82,"Cn1nnc2cc(CN3CCC4(CC3)CCN(C(=O)c3ccc5c(c3)C(NC(=O)c3cc(Cl)ccc3F)CC5)CC4)ccc21 (centres unmarked) [IND_CC-679, 5-Chloro-2-fluoro-N-[6-[9-[(1-methyl-1H-benzotriazol-5-yl)-methyl]-3,9-diazaspiro[5.5]undecane-3-carbonyl]-2,3-dihydro-1H-inden-1-yl]-benzamide]"
2,80,"O=C(NCc1ccccc1)N1CCC2(CC1)CCN(C(=O)c1ccc3c(c1)C(N(C(=O)c1ccccc1Cl)C1CC1)CC3)C2 (centres unmarked) [IND_CC-716, N-Benzyl-2-[3-[(2-chloro-benzoyl)-cyclopropyl-amino]-2,3-dihydro-1H-indene-5-carbonyl]-2,8-diazaspiro[4.5]decane-8-carboxylic acid amide]"
3,67,"O=C(NC1CCc2ccc(C(=O)N3CCC4(CCN(Cc5ccc(F)cc5Cl)CC4)CC3)cc21)c1cccc(Cl)c1Cl (centres unmarked) [IND_CC-726, 2,3-Dichloro-N-[6-[9-[(2-chloro-4-fluoro-phenyl)-methyl]-3,9-diazaspiro[5.5]undecane-3-carbonyl]-2,3-dihydro-1H-inden-1-yl]-benzamide]"
4,102,"O=C(NC1CCc2ccc(C(=O)N3CCC4(CCN(Cc5ccc6nccnc6c5)CC4)CC3)cc21)c1cc(C(F)(F)F)ccc1Cl (centres unmarked) [IND_CC-696, 2-Chloro-N-[6-[9-(quinoxalin-6-yl-methyl)-3,9-diazaspiro[5.5]undecane-3-carbonyl]-2,3-dihydro-1H-inden-1-yl]-5-(trifluoromethyl)-benzamide]"
5,68,"O=C(NC1CCc2ccc(C(=O)N3CCC4(CCN(Cc5ccc6nccnc6c5)CC4)C3)cc21)c1cc(C(F)(F)F)ccc1Cl (centres unmarked) [IND_CC-685, 2-Chloro-N-[6-[8-(quinoxalin-6-yl-methyl)-2,8-diazaspiro[4.5]decane-2-carbonyl]-2,3-dihydro-1H-inden-1-yl]-5-(trifluoromethyl)-benzamide]"
6,100,"O=C(c1ccc2c(c1)C(NS(=O)(=O)c1ccccc1Cl)CC2)N1CCC2(CCN(c3ccncc3)CC2)C1 (centres unmarked) [Ind_CC-089, 2-chloro-N-[6-(8-pyridin-4-yl-3,8-diazaspiro[4.5]decane-3-carbonyl)-2,3-dihydro-1H-inden-1-yl]-benzenesulfonic acid amide]"
7,69,"O=C(NC1CCc2ccc(C(=O)N3CCC4(CCN(CC5CCCCC5)CC4)C3)cc21)c1c(F)cccc1Cl (centres unmarked) [IND_CC-779, 2-Chloro-N-[6-[8-(cyclohexyl-methyl)-2,8-diazaspiro[4.5]decane-2-carbonyl]-2,3-dihydro-1H-inden-1-yl]-6-fluoro-benzamide]"
8,92,"CN(C)c1ccc(NC(=O)N2CCC3(CC2)CCN(C(=O)c2ccc4c(c2)C(NC(=O)c2ccccc2Cl)CC4)CC3)cc1 (centres unmarked) [IND_CC-707, 3-[3-[(2-Chloro-benzoyl)amino]-2,3-dihydro-1H-indene-5-carbonyl]-N-(4-dimethylaminophenyl)-3,9-diazaspiro[5.5]undecane-9-carboxylic acid amide]"
9,98,"O=C(NC1CCc2ccc(C(=O)N3CCC4(CCN(CCCc5ccc(F)cc5)CC4)C3)cc21)c1cccc(Cl)c1Cl (centres unmarked) [IND_CC-751, 2,3-Dichloro-N-[6-[8-[3-(4-fluorophenyl)-propyl]-2,8-diazaspiro[4.5]decane-2-carbonyl]-2,3-dihydro-1H-inden-1-yl]-benzamide]"
10,50,"CCn1cc(CN2CCC3(CC2)CCN(C(=O)c2ccc4c(c2)C(NC(=O)c2cccc(Cl)c2Cl)CC4)C3)c(C)n1 (centres unmarked) [IND_CC-742, 2,3-Dichloro-N-[6-[8-[(1-ethyl-3-methyl-1H-pyrazol-4-yl)-methyl]-2,8-diazaspiro[4.5]decane-2-carbonyl]-2,3-dihydro-1H-inden-1-yl]-benzamide]"
11,91,"O=C(NC1CCc2ccc(C(=O)N3CCC4(CCN(Cc5ccc(F)cc5F)CC4)CC3)cc21)c1c(F)cccc1Cl (centres unmarked) [IND_CC-791, 2-Chloro-N-[6-[9-[(2,4-difluoro-phenyl)-methyl]-3,9-diazaspiro[5.5]undecane-3-carbonyl]-2,3-dihydro-1H-inden-1-yl]-6-fluoro-benzamide]"
12,67,"O=C(NC1CCc2ccc(C(=O)N3CCC4(CCN(Cc5ccc6ncccc6c5)CC4)C3)cc21)c1cc(C(F)(F)F)ccc1Cl (centres unmarked) [IND_CC-684, 2-Chloro-N-[6-[8-(quinolin-6-yl-methyl)-2,8-diazaspiro[4.5]decane-2-carbonyl]-2,3-dihydro-1H-inden-1-yl]-5-(trifluoromethyl)-benzamide]"
13,108,"Cc1cccc(Cl)c1C(=O)NC1CCc2ccc(C(=O)N3CCC4(CCN(CCCc5ccc(F)cc5)CC4)C3)cc21 (centres unmarked) [IND_CC-771, 2-Chloro-N-[6-[8-[3-(4-fluorophenyl)-propyl]-2,8-diazaspiro[4.5]decane-2-carbonyl]-2,3-dihydro-1H-inden-1-yl]-6-methyl-benzamide]"
14,90,"CC(C)CN1CCC2(CC1)CCN(C(=O)c1ccc3c(c1)C(NC(=O)c1cc(C(F)(F)F)ccc1Cl)CC3)CC2 (centres unmarked) [IND_CC-698, 2-Chloro-N-[6-[9-(2-methyl-propyl)-3,9-diazaspiro[5.5]undecane-3-carbonyl]-2,3-dihydro-1H-inden-1-yl]-5-(trifluoromethyl)-benzamide]"
15,67,"O=C(NC1CCc2ccc(C(=O)N3CCC4(CCN(Cc5c(F)cccc5Cl)CC4)CC3)cc21)c1cc(C(F)(F)F)ccc1Cl (centres unmarked) [IND_CC-670, 2-Chloro-N-[6-[9-[(2-chloro-6-fluoro-phenyl)-methyl]-3,9-diazaspiro[5.5]-undecane-3-carbonyl]-2,3-dihydro-1H-inden-1-yl]-5-(trifluoromethyl)benzamide]"

# Same assay, conditions: rat B1R
row,Compound,% Inhibition (rat B1R) at 10 μM [%]
1,"2,3-Dichloro-N-methyl-N-[6-(9-pyridin-4-yl-3,9-diazaspiro[5.5]undecane-3-carbonyl)-2,3-dihydro-1H-inden-1-yl]-benzenesulfonic acid amide [IND_CC-343]",97

# Same assay, conditions: rat B1R, 10 µM
row,% Inhibition (rat B1R) at 10 μM [%],Compound
1,95,"O=C(NC1CCc2ccc(C(=O)N3CCC4(CCN(Cc5ccncc5)CC4)CC3)cc21)c1ccccc1Cl (centres unmarked) [IND_CC-510, 2-Chloro-N-[6-[9-(pyridin-4-yl-methyl)-3,9-diazaspiro[5.5]undecane-3-carbonyl]-2,3-dihydro-1H-inden-1-yl]-benzamide]"
